Data published in patent US20150284331A1 (priority 2012, published 2015).

Legend:
butyrylcholinesterase = target: T1, butyrylcholinesterase (Rattus norvegicus, UniProt Q9JKC1); test: inhibition of butyrylcholinesterase (rat serum); format: biochemical; settings: rat serum enzyme; final concentration 4×10−5 mol/L
T1 construct: Butyrylcholinesterase: rat serum; from tissue; host or cells: rat serum
Description: (§1) Sample processing: All samples were formulated as 10-2 mol/L solution by using 100% DMSO. 10-2 mol/L solution was used in microdetermination. 1 μL was taken to use in single tube experiment.
(§2) Solvent control: 0.4% DMSO was used in microdetermination. The inhibition ratio of the sample was obtained wherein the effect of solvent was deducted.
Butyrylcholinesterase: rat serum

acetylcholinesterase = target: T2, acetylcholinesterase (Rattus norvegicus, UniProt P37136); test: biochemical; format: biochemical; settings: rat cortex enzyme; for acetylcholinesterase inhibitory activity inhibition ratio (%): final concentration 4×10−5 mol/L; for IC50: read-out: acetylcholinesterase inhibitory activity IC50 (nmol)
T2 construct: Acetylcholinesterase: rat cortex; from tissue; host or cells: rat cortex
T2 sequence (P37136 32-614): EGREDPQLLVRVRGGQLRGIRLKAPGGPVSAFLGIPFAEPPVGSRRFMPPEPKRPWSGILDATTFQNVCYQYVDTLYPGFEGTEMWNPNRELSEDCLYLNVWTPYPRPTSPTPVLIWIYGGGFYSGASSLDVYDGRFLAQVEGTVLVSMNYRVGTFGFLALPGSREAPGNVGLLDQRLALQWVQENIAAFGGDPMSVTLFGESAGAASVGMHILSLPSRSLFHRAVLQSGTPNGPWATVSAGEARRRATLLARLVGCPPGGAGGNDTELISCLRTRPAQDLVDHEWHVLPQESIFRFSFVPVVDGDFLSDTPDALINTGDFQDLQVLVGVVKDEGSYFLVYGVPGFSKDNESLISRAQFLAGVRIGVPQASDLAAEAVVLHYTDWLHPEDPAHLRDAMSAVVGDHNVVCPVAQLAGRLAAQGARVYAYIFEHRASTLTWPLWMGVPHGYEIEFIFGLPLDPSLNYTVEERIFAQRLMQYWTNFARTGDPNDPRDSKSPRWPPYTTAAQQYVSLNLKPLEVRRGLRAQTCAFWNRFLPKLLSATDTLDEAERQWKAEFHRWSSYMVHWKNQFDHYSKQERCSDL
Description: as §1, §2
Acetylcholinesterase: rat cortex

T1 sequence (Q9JKC1 24-597): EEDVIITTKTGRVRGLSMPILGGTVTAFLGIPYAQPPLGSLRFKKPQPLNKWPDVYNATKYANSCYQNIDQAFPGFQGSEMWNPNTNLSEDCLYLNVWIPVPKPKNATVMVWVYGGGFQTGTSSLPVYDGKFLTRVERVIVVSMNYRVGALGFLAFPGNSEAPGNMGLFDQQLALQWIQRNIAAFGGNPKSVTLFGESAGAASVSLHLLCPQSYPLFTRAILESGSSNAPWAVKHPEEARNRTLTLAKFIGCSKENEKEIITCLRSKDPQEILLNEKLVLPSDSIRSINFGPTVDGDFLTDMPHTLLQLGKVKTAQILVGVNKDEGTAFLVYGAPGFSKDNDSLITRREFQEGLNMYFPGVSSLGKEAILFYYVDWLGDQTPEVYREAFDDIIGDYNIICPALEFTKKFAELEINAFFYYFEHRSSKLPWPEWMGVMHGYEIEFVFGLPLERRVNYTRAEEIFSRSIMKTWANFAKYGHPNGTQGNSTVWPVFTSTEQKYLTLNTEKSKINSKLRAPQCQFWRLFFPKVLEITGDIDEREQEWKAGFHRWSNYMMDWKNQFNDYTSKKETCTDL

## COc1cc2c(cc1OC)C(=O)C(CC1(F)CC3CCC(C1)N3Cc1cccc(Br)c1)C2 (centres unmarked) [DC51, 2-((8-(3-bromobenzyl)-3-fluoro-8-azabicyclo[3.2.1]octan-3-yl)methyl)-5,6-dimethoxy-2,3-dihydro-1H-inden-1-one]
butyrylcholinesterase
  butyrylcholinesterase inhibitory activity inhibition ratio (%): 15.26%
acetylcholinesterase
  acetylcholinesterase inhibitory activity inhibition ratio (%): 85.08%

## COc1cc2c(cc1OC)C(=O)C(CC1(F)CCN(Cc3ccc(F)c(F)c3F)CC1)C2 (centres unmarked) [DC12, 2-((4-fluoro-1-(2,3,4-trifluorobenzyl)piperidin-4-yl)methyl)-5,6-dimethoxy-2,3-dihydro-1H-inden-1-one]
butyrylcholinesterase
  butyrylcholinesterase inhibitory activity inhibition ratio (%): 38.15%
acetylcholinesterase
  acetylcholinesterase inhibitory activity inhibition ratio (%): 98.08%

## COc1cc2c(cc1OC)C(=O)C(CC1(F)CCN(Cc3cc(C)cc(C)c3)CC1)C2 (centres unmarked) [DC4, 2-((1-(3,5-dimethylbenzyl)-4-fluoropiperidin-4-yl)methyl)-5,6-dimethoxy-2,3-dihydro-1H-inden-1-one]
butyrylcholinesterase
  butyrylcholinesterase inhibitory activity inhibition ratio (%): 72.82%
acetylcholinesterase
  acetylcholinesterase inhibitory activity inhibition ratio (%): 75.65%

## COc1cc2c(cc1OC)C(=O)C(CC1(F)CCN(Cc3cc(F)c(F)cc3F)CC1)C2 (centres unmarked) [DC17, 2-((4-fluoro-1-(2,4,5-trifluorobenzyl)piperidin-4-yl)methyl)-5,6-dimethoxy-2,3-dihydro-1H-inden-1-one]
butyrylcholinesterase
  butyrylcholinesterase inhibitory activity inhibition ratio (%): 49.79%
acetylcholinesterase
  acetylcholinesterase inhibitory activity inhibition ratio (%): 81.84%
  IC50: 2 nM

## COc1cc2c(cc1OC)C(=O)C(CC1(F)CCN(Cc3ccc(-c4ccccc4)cc3)CC1)C2 (centres unmarked) [DC36, 2-((1-([1,1′-biphenyl]-4-ylmethyl)-4-fluoropiperidin-4-yl)methyl)-5,6-dimethoxy-2,3-dihydro-1H-inden-1-one]
butyrylcholinesterase
  butyrylcholinesterase inhibitory activity inhibition ratio (%): 5.18%
acetylcholinesterase
  acetylcholinesterase inhibitory activity inhibition ratio (%): 90.25%

## O=C1c2cc(OC(F)F)c(OC(F)F)cc2CC1CC1(F)CCN(Cc2ccccc2F)CC1 (centres unmarked) [DC104, 5,6-bis(difluoromethoxy)-2-((4-fluoro-1-(2-fluorobenzyl)piperidin-4-yl)methyl)-2,3-dihydro-1H-inden-1-one]
butyrylcholinesterase
  butyrylcholinesterase inhibitory activity inhibition ratio (%): 71.8%
acetylcholinesterase
  acetylcholinesterase inhibitory activity inhibition ratio (%): 98.02%
  IC50: 0.76 nM

## COc1cc2c(cc1OC)C(=O)C(CC1(F)CC3CCC(C1)N3Cc1cccc(C(F)(F)F)c1)C2 (centres unmarked) [DC70, 2-((3-fluoro-8-(3-(trifluoromethyl)benzyl)-8-azabicyclo[3.2.1]octan-3-yl)methyl)-5,6-dimethoxy-2,3-dihydro-1H-inden-1-one]
butyrylcholinesterase
  butyrylcholinesterase inhibitory activity inhibition ratio (%): 0.09%
acetylcholinesterase
  acetylcholinesterase inhibitory activity inhibition ratio (%): 76.51%

## COc1cc2c(cc1OC)C(=O)C(CC1(F)CCN(CCc3ccccc3)CC1)C2 (centres unmarked) [DC110, 2-((4-fluoro-1-phenethylpiperidin-4-yl)methyl)-5,6-dimethoxy-2,3-dihydro-1H-inden-1-one]
butyrylcholinesterase
  butyrylcholinesterase inhibitory activity inhibition ratio (%): 66.30%
acetylcholinesterase
  acetylcholinesterase inhibitory activity inhibition ratio (%): 88.55%
  IC50: 12.3 nM

## COc1cc2c(cc1OC)C(=O)C(CC1(F)CCN(Cc3c(F)cccc3[N+](=O)[O-])CC1)C2 (centres unmarked) [DC8, 2-((4-fluoro-1-(2-fluoro-6-nitrobenzyl)piperidin-4-yl)methyl)-5,6-dimethoxy-2,3-dihydro-1H-inden-1-one]
butyrylcholinesterase
  butyrylcholinesterase inhibitory activity inhibition ratio (%): 49.48%
acetylcholinesterase
  acetylcholinesterase inhibitory activity inhibition ratio (%): 76.05%
  IC50: 27100 nM

## COc1cc2c(cc1OC)C(=O)C(CC1(F)CCN(Cc3ccc(C(C)(C)C)cc3)CC1)C2 (centres unmarked) [DC7, 2-((1-(4-(tert-butyl)benzyl)-4-fluoropiperidin-4-yl)methyl)-5,6-dimethoxy-2,3-dihydro-1H-inden-1-one]
butyrylcholinesterase
  butyrylcholinesterase inhibitory activity inhibition ratio (%): 8.40%
acetylcholinesterase
  acetylcholinesterase inhibitory activity inhibition ratio (%): 69.06%

## COc1cc2c(cc1OC)C(=O)C(CC1(F)CC3CCC(C1)N3Cc1cccc(F)c1)C2 (centres unmarked) [DC61, 2-((3-fluoro-8-(3-fluorobenzyl)-8-azabicyclo[3.2.1]octan-3-yl)methyl)-5,6-dimethoxy-2,3-dihydro-1H-inden-1-one]
butyrylcholinesterase
  butyrylcholinesterase inhibitory activity inhibition ratio (%): 61.04%
acetylcholinesterase
  acetylcholinesterase inhibitory activity inhibition ratio (%): 96.75%

## COc1cc2c(cc1OC)C(=O)C(CC1(F)CC3CCC(C1)N3Cc1ccccc1F)C2 (centres unmarked) [DC60, 2-((3-fluoro-8-(2-fluorobenzyl)-8-azabicyclo[3.2.1]octan-3-yl)methyl)-5,6-dimethoxy-2,3-dihydro-1H-inden-1-one]
butyrylcholinesterase
  butyrylcholinesterase inhibitory activity inhibition ratio (%): 64.31%
acetylcholinesterase
  acetylcholinesterase inhibitory activity inhibition ratio (%): 95.13%

## COc1cc2c(cc1OC)C(=O)C(CC1(F)CCN(Cc3ccc(C(F)(F)F)cc3)CC1)C2 (centres unmarked) [DC16, 2-((4-fluoro-1-(4-(trifluoromethyl)benzyl)piperidin-4-yl)methyl)-5,6-dimethoxy-2,3-dihydro-1H-inden-1-one]
butyrylcholinesterase
  butyrylcholinesterase inhibitory activity inhibition ratio (%): 0.00%
acetylcholinesterase
  acetylcholinesterase inhibitory activity inhibition ratio (%): 75.25%

## CCCOc1cc2c(cc1OCCC)C(=O)C(CC1(F)CCN(Cc3ccccc3F)CC1)C2 (centres unmarked) [DC78, 2-((4-fluoro-1-(2-fluorobenzyl)piperidin-4-yl)methyl)-5,6-dipropoxy-2,3-dihydro-1H-inden-1-one]
butyrylcholinesterase
  butyrylcholinesterase inhibitory activity inhibition ratio (%): 71.0%
acetylcholinesterase
  acetylcholinesterase inhibitory activity inhibition ratio (%): 95.04%
  IC50: 0.96 nM

## COc1cc2c(cc1OC)C(=O)C(CC1(F)CCN(CC3CCCC3)CC1)C2 (centres unmarked) [DC32, 2-((1-(cyclopentylmethyl)-4-fluoropiperidin-4-yl)methyl)-5,6-dimethoxy-2,3-dihydro-1H-inden-1-one]
butyrylcholinesterase
  butyrylcholinesterase inhibitory activity inhibition ratio (%): 46.68%
acetylcholinesterase
  acetylcholinesterase inhibitory activity inhibition ratio (%): 90.10%

## CCOc1cc2c(cc1OCC)C(=O)C(CC1(F)CCN(Cc3ccccc3F)CC1)C2 (centres unmarked) [DC77, 5,6-diethoxy-2-((4-fluoro-1-(2-fluorobenzyl)piperidin-4-yl)methyl)-2,3-dihydro-1H-inden-1-one]
butyrylcholinesterase
  butyrylcholinesterase inhibitory activity inhibition ratio (%): 72.0%
acetylcholinesterase
  acetylcholinesterase inhibitory activity inhibition ratio (%): 97.09%
  IC50: 0.9 nM

## COc1cc2c(cc1OC)C(=O)C(CC1(F)CCN(Cc3cccc(F)c3)CC1)C2.Cl (centres unmarked) [DC38, 2-((4-fluoro-1-(3-fluorobenzyl)piperidin-4-yl)methyl)-5,6-dimethoxy-2,3-dihydro-1H-inden-1-one hydrochloride]
butyrylcholinesterase
  butyrylcholinesterase inhibitory activity inhibition ratio (%): 72.57%
acetylcholinesterase
  acetylcholinesterase inhibitory activity inhibition ratio (%): 96.90%

## COc1cc2c(cc1OC)C(=O)C(CC1(F)CCN(C(=O)c3ccccc3)CC1)C2 (centres unmarked) [DC23, 2-((1-benzoyl-4-fluoropiperidin-4-yl)methyl)-5,6-dimethoxy-2,3-dihydro-1H-inden-1-one]
butyrylcholinesterase
  butyrylcholinesterase inhibitory activity inhibition ratio (%): 0.00%
acetylcholinesterase
  acetylcholinesterase inhibitory activity inhibition ratio (%): 57.09%

## COc1cc2c(cc1OC)C(=O)C(CC1(F)CCN(Cc3ccccc3C#N)CC1)C2.Cl (centres unmarked) [DC37, 2-((4-((5,6-dimethoxy-1-oxo-2,3-dihydro-1H-inden-2-yl)methyl)-4-fluoropiperidin-1-yl)methyl)benzonitrile hydrochloride]
butyrylcholinesterase
  butyrylcholinesterase inhibitory activity inhibition ratio (%): 20.80%
acetylcholinesterase
  acetylcholinesterase inhibitory activity inhibition ratio (%): 81.98%
